Results taken from patent US9056844B2, “4-substituted-3-benzyloxy-bicyclo[3.1.0]hexane compounds as mGluR 2/3 antagonists” (Eli Lilly and Company, priority 2010, dated 2015).

Experiments:
iGluR5 = iGluR5 (Homo sapiens, UniProt P39086); assay: Off-target activity, known assay methods: iGluR5
Source text: (§1) Further, certain compounds of the present invention show a lack of significant activity at other physiologically important receptors such as, but not limited to, the hERG channel, serotonin receptors (specifically 5-HT2A and 5-HT2B), muscarinic receptors (specifically M2), and iGluR receptors (specifically iGluR5).

muscarinic receptor M2 = target: T1, muscarinic receptor M2 (Homo sapiens, UniProt P08172); assay: Off-target activity, known assay methods: M2
T1 sequence (P08172 1-466): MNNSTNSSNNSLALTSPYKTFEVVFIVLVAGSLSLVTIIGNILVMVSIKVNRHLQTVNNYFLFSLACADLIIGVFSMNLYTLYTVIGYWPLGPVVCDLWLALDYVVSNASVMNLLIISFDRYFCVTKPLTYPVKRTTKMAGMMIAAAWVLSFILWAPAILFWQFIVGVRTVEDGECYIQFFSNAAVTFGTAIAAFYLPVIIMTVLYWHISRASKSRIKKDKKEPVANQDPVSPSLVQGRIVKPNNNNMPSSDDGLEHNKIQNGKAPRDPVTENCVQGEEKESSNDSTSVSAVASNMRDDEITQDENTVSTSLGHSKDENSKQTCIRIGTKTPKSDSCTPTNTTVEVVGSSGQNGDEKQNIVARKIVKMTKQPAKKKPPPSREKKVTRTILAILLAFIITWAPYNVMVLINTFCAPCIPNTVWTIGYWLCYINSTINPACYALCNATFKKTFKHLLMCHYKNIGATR
Source text: as §1

[1] = target: serotonin receptor 5-HT2A (Homo sapiens, UniProt P28223); assay: Off-target activity, known assay methods: 5-HT2A
Source text: as §1

mGlu2+/+ mice = assay: mFST in mGlu2+/+ littermate mice; type: in vivo, mouse; settings: 10 mg/kg, i.p., 30 min prior

Chain of iGluR5 (P39086 31-918): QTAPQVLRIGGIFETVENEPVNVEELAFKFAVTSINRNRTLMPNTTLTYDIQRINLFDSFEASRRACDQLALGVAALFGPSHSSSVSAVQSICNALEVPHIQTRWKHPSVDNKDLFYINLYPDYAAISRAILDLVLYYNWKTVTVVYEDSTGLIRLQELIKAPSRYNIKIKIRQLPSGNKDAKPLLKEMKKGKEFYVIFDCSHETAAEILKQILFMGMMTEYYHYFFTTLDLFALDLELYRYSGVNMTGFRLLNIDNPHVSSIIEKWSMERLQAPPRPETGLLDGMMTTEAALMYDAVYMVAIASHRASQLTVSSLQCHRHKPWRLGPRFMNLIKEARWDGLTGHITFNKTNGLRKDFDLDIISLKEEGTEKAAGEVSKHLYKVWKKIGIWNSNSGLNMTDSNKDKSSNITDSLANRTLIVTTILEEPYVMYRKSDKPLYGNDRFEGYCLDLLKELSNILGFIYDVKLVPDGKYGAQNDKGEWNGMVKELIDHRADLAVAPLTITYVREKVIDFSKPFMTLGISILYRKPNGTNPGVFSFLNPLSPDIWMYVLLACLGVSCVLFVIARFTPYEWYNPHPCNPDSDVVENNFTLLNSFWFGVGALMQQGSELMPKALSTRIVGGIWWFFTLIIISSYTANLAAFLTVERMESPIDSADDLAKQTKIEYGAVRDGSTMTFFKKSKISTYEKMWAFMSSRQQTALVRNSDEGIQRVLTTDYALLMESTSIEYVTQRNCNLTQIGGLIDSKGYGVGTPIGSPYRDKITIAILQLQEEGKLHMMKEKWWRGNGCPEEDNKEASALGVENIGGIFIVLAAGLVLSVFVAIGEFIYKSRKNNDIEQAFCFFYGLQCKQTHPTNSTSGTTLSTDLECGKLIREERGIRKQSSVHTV
Chain of serotonin receptor 5-HT2A (P28223 whole entry): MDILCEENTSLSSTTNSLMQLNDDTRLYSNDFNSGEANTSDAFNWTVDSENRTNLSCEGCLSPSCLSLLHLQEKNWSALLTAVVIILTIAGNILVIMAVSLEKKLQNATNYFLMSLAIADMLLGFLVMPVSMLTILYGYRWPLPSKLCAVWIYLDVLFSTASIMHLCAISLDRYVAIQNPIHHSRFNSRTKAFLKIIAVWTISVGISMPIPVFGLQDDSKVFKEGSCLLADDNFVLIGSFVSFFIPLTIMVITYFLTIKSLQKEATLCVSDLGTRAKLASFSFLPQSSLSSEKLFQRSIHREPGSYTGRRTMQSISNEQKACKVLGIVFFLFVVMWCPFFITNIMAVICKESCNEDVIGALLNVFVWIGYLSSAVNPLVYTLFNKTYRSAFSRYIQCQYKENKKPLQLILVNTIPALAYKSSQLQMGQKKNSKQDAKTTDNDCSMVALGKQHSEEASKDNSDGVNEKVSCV

activity at iGluR5 (iGluR5): no appreciable activity | activity at M2 (muscarinic receptor M2): no appreciable activity | activity at 5-HT2A [1]: no appreciable activity
SMILES: N[C@]1(C(=O)O)[C@@H]2[C@@H](C(=O)O)[C@@H]2[C@H](O)[C@H]1OCc1ccc(Cl)c(Cl)c1 [Example 1, (1S,2R,3S,4S,5R,6R)-2-Amino-3-[(3,4-dichlorobenzyl)oxy]-4-hydroxybicyclo[3.1.0]hexane-2,6-dicarboxylic acid]
immobility time (mGlu2+/+ mice): significantly decrease immobility time
